Source: patent US20230406850A1, “CRYSTALLINE FORM OF HETEROCYCLIC COMPOUND, PREPARATION METHOD THEREFOR AND APPLICATION THEREOF” (WUHAN LL SCIENCE AND TECHNOLOGY DEVELOPMENT CO., LTD., priority 2020, published 2023)
Values after ≈ are worked out from the molar mass of the structure shown. Read-outs that look alike come from different tables or passages of the source.

Tests used:
[1] = Solid form change on dehydration, drying or ambient humidity (XRPD); assay type: physicochemical
Source text: Combined with DSC and TGA pattern, it can be seen that the product is hydrate with about 0.34 water molecules.

[2] = Dynamic vapor sorption (DVS) hygroscopicity; assay type: physicochemical
Experimental: The solid was analyzed by DVS using IGA sorp dynamic vapor sorption instrument. • Temperature: 25° C. • Gas flow: 250 mL/min. • Scan cycle: 2. • Minimum test time: 30 min. • Maximum test time: 2 hours. • Waiting for balance: 98%.

[3] = Solid-state crystal transformation between crystalline forms I and V; assay type: physicochemical; conditions: mixture of forms I and V, oven at 60° C. and room temperature dryer, one week
[4] = Solubility in biological media SGF, FaSSIF and FeSSIF; assay type: physicochemical; conditions: for solubility at 0.5 h / solubility at 2 h / Solubility: 37° C.
Experimental: Compared with other crystalline forms, crystalline forms I, III and V show good solid properties, so their solubility was tested respectively.
10 mg of the sample was weighed, and then 2.0 mL of biological media buffer (i.e. the target concentration is 5 mg/mL) was added to form a suspension. The mixture was put in a constant temperature water bath shaker (37° C., 100 rpm), and sampled 500 μL at 0.5, 2 and 24 hours respectively. After filtration, the pH value and HPLC concentration of filtrate were tested respectively, and the solid sample obtained by filtration was tested by XRPD.

[5] = Competitive slurrying experiment of crystalline forms I and V; assay type: physicochemical; conditions: acetone, ethanol, room temperature and 60° C., three days
Experimental: Competitive slurrying experiment was carried out: the same amount of crystalline forms I and V were weighed and mixed evenly, then XRPD was tested, and the results were used as T0 of competitive slurrying experiment. The mixture was slurried in acetone, ethanol and water at room temperature and 60° C. Three days later, solid samples were obtained by filtration, and. XRPD was tested.

[6] = Water activity experiment (slurry in acetone/water); assay type: physicochemical; conditions: three days
Experimental: Water activity experiment was carried out. Crystalline forms I and V ([…]) were slurried in a mixed solvent in acetone/water with different water contents at room temperature and 60° C. for three days, and after three days, solid sample was filtered to test XRPD, and the experimental results are as shown in Table 4.

[7] = Pharmacokinetics, crystalline form I versus crystalline form V; assay type: in vivo, Beagle dog; conditions: 10 mg/kg po, fasting, male dogs, 0.5% CMC-Na suspension, plasma
Experimental: Beagle dog (general grade, Beijing Masi Biotechnology Co., Ltd.) was given compound A by single oral gavage to study the pharmacokinetics of the compound in plasma. The test drug (100 mg/kg dosage, 5 mL/kg administration volume) was given by gavage, and samples were collected at 10 minutes, 30 minutes, 1 hour, 2 hours, 4 hours, 6 hours, 8 hours, 10 hours, 24 hours and 48 hours after administration: peripheral venipuncture was performed, and about 1.0 mL whole blood was collected from each animal at every time point, and blood samples were collected. Within 60 minutes after blood collection, 0.2 mL of whole blood was separated into a cryopreservation tube, and deionized water was added at a ratio of 1:1, which was mixed upside down and then frozen. The remaining samples were centrifuged at 2,000 g at 2 to 8° C. for 10 min to obtain plasma samples, and the hemolysis of each sample was recorded, and the influence on detection was evaluated, and then the color of plasma was observed and recorded on the blood collection table (“−” means no hemolysis, “+” means pink supernatant and “++” means red supernatant).
The concentration of compound A in plasma was determined by LC-MS/MS method (Non-GLP). The pharmacokinetic parameters were calculated by WinNonlin (Phoenix™, version 8.1) or other similar software. If applicable plasma drug concentration-time data are available, the following pharmacokinetic parameters are calculated: CL (clearance), Vss (steady-state apparent volume of distribution), T1/2 (elimination half-life), Cmax (peak concentration), Tmax (peak time), AUC (area under the concentration-time curve), MRT (mean residence time). Pharmacokinetic data were described by descriptive statistics, such as mean, standard deviation and sample size.
Comparison of crystalline form and crystalline form V is the same for 3 dogs (male), 10 mg/kg po, fasting, 0.5% CMC-Na stirring for 3 hours, and then administration (suspension), and the data obtained are as shown in Table 7.

[8] = Physical and chemical stability (stability boxes, XRPD and HPLC); assay type: physicochemical; conditions: for Purity -7 days (peak area %) / XRPD: 7 days
Experimental: About 10 mg of crystalline forms I, III and V were placed in the stability boxes at 40° C./75% RH (open) and 60° C. (covered) for seven days, and some samples were taken out for XRPD and HPLC tests at 0 and 7 days, respectively, to investigate their physical and chemical stability.

[9] = tested on: Dunkin Hartley guinea pigs, ATP-citric acid induced cough; test: ATP-citric acid cough model; assay type: in vivo, guinea pig
Experimental: Male Dunkin Hartley guinea pigs (300-400 g) were placed in a whole-body volume scanning box for 3 to 5 minutes, and then subjected to ATP atomization for 2 minutes, with an interval of 3 minutes, followed by citric acid atomization for 5 minutes, and all atomization rates were about 300 μL/min. From citrate acid atomization, cough times and cough latency of animals within 10 min were recorded. During the 10-minute observation period, manual counting of coughs was required, and the number of coughs was judged according to the guinea pig's coughing posture, such as abdominal twitching, mouth opening, head down hooking, etc., as well as the sound of coughing, the number of coughs in the first 10 minutes were recorded, and the cough incubation period of guinea pigs was also recorded.
Animals were divided into vehicle group, dextromethorphan (63 mg/kg) positive group, AF-219 (30 mg/kg) positive group and compound 172 (3, 10, 30 mg/kg) administration group of Embodiment. All compounds were administered orally, except dextromethorphan, which was administered 40 minutes before ATP-citric acid exposure, and the rest compounds were […].

[10] = 63 mg/kg oral, 40 minutes before ATP-citric acid exposure

For `COC(=O)N1CCO[C@@H](Cc2c(-c3c(F)cc(S(N)(=O)=O)cc3F)nc3cc(Cl)ccn23)C1` [Crystalline form IV, methyl (S)-2-((7-chloro-2-(2,6-difluoro-4-sulfamoylphenyl)imidazo[1,2-a]pyridin-3-yl)methyl)morpholine-4-carboxylate], which “crystalline form after dehydration” value ([1]; heating to dehydration, then ambient humidity) is on record?
The value was “becomes crystalline form I again”.

For `COC(=O)N1CCO[C@@H](Cc2c(-c3c(F)cc(S(N)(=O)=O)cc3F)nc3cc(Cl)ccn23)C1` [Crystalline form VIII, methyl (S)-2-((7-chloro-2-(2,6-difluoro-4-sulfamoylphenyl)imidazo[1,2-a]pyridin-3-yl)methyl)morpholine-4-carboxylate], which “crystalline form after desolvation by vacuum drying” value ([1]; vacuum drying at 40° C. for 3 hours) is on record?
The value was “transformed into crystalline form I”.

Which “XRPD before and after the DVS test” value [2] does the source give for `COC(=O)N1CCO[C@@H](Cc2c(-c3c(F)cc(S(N)(=O)=O)cc3F)nc3cc(Cl)ccn23)C1` [Crystalline form V, methyl (S)-2-((7-chloro-2-(2,6-difluoro-4-sulfamoylphenyl)imidazo[1,2-a]pyridin-3-yl)methyl)morpholine-4-carboxylate] here?
Its value is “no obvious change in the XRPD”.

And the “hygroscopicity (DVS)” value ([2]; 80% RH, 25° C.)?
Its value is 0.7%.

What about the “mutual crystal transformation in solid state” value [3] of the same compound?
Its value is “no mutual crystal transformation trend”.

And the solubility at 0.5 h ([4]; FaSSIF, 37 °C, fassif, thermodynamic from solid, FaSSIF, 0.5 h, read-out: Solubility)?
Its solubility at 0.5 h is 30 µg/mL (≈ 59.9 µM).

And the solubility at 2 h ([4]; FaSSIF, 37 °C, fassif, thermodynamic from solid, FaSSIF, 2 h, read-out: Solubility)?
The solubility at 2 h was 34 µg/mL (≈ 67.9 µM).

What about the solubility at 24 h ([4]; FaSSIF, 37 °C, thermodynamic from solid, 24 h) of the same compound?
The solubility at 24 h was 45 µg/mL (≈ 89.8 µM).

And the “XRPD of remaining solid” value ([4]; FaSSIF, 0.5 h)?
The value was “Unchanged”.

What about the pH of filtrate ([4]; FaSSIF, 0.5 h) of the same compound?
Its pH of filtrate is 6.4.

What about the “XRPD of remaining solid” value ([4]; FaSSIF, 2 h) of the same compound?
The value was “Unchanged”.

What about the pH of filtrate ([4]; FaSSIF, 2 h) of the same compound?
Its pH of filtrate is 6.4.

And the “XRPD of remaining solid” value ([4]; FaSSIF, 24 h)?
The value was “Unchanged”.

And the pH of filtrate ([4]; FaSSIF, 24 h)?
Its pH of filtrate is 6.4.

What about the “XRPD of remaining solid” value ([4]; FeSSIF, 0.5 h) of the same compound?
The value was “Unchanged”.

And the pH of filtrate ([4]; FeSSIF, 0.5 h)?
The pH of filtrate was 5.0.

And the Solubility ([4]; FeSSIF, 0.5 h)?
The Solubility was 91 µg/mL (≈ 182 µM).

And the “XRPD of remaining solid” value ([4]; FeSSIF, 2 h)?
The value was “Unchanged”.

And the pH of filtrate ([4]; FeSSIF, 2 h)?
Its pH of filtrate is 5.0.

What about the Solubility ([4]; FeSSIF, 2 h) of the same compound?
Its Solubility is 93 µg/mL (≈ 186 µM).

And the “XRPD of remaining solid” value ([4]; FeSSIF, 24 h)?
The value was “Unchanged”.

What about the pH of filtrate ([4]; FeSSIF, 24 h) of the same compound?
The pH of filtrate was 5.1.

What about the Solubility ([4]; FeSSIF, 24 h) of the same compound?
The Solubility was 121 µg/mL (≈ 242 µM).

And the solubility at 0.5 h ([4]; SGF, 37 °C, simulated gastric fluid, thermodynamic from solid, SGF, 0.5 h, read-out: Solubility)?
The solubility at 0.5 h was 4330 µg/mL (≈ 8650 µM).

And the solubility at 2 h ([4]; SGF, 37 °C, simulated gastric fluid, thermodynamic from solid, SGF, 2 h, read-out: Solubility (visual observation))?
The solubility at 2 h was over 5000 µg/mL.

And the pH of filtrate ([4]; SGF, 0.5 h)?
The pH of filtrate was 1.2.

What about the pH of filtrate ([4]; SGF, 2 h) of the same compound?
The pH of filtrate was 1.1.

What about the pH of filtrate ([4]; SGF, 24 h) of the same compound?
The pH of filtrate was 1.2.

What about the “relative stability inferred from competitive slurrying and water activity tests” value [5] of the same compound?
Its value is “stable at high temperature (60° C.) in water”.

What about the “The experimental results (crystalline form)” value (from here on “The experimental results”) ([6]; water content 10%, 60° C.) of the same compound?
Its value is “Crystalline form VI”.

What about the “The experimental results” value ([6]; water content 10%, RT) of the same compound?
Its value is “Crystalline form I”.

And the “The experimental results” value ([6]; water content 50%, 60° C.)?
The value was “Crystalline form IV”.

What about the “The experimental results” value ([6]; water content 50%, RT) of the same compound?
The value was “Crystalline form IV”.

What about the “The experimental results” value ([6]; water content 90%, 60° C.) of the same compound?
The value was “Crystalline form IV”.

What about the “The experimental results” value ([6]; water content 90%, RT) of the same compound?
The value was “Crystalline form IV”.

What about the AUClast [7] of the same compound?
The AUClast was 2637.43 ng·h/mL.

What about the Cmax [7] of the same compound?
Its Cmax is 170.43 ng/mL.

And the F [7]?
Its F is 11.7%.

And the MRTlast [7]?
Its MRTlast is 10.39 h.

What about the T1/2 [7] of the same compound?
The T1/2 was 44.35 h.

And the Tmax [7]?
The Tmax was 4.67 h.

And the “Initial purity (Peak area %)” value ([8]; 0 days)?
The value was 99.29 peak area %.

And the “Purity -7 days (peak area %)” value ([8]; 40° C./75% RH (open))?
Its value is 99.28 peak area %.

And the XRPD ([8]; 40° C./75% RH (open))?
Its XRPD is “Constant”.

And the “stability conclusion in words” value ([8]; 40° C./75% RH and 60° C., seven days)?
Its value is “good physical and chemical stability”.

And the “Purity -7 days (peak area %)” value ([8]; 60° C. (covered))?
The value was 99.30 peak area %.

And the XRPD ([8]; 60° C. (covered))?
The XRPD was “Constant”.

With `COC(=O)N1CCO[C@@H](Cc2c(-c3c(F)cc(S(N)(=O)=O)cc3F)nc3cc(Cl)ccn23)C1` [Crystalline form VI, methyl (S)-2-((7-chloro-2-(2,6-difluoro-4-sulfamoylphenyl)imidazo[1,2-a]pyridin-3-yl)methyl)morpholine-4-carboxylate] as the compound, how does the “crystalline form after being placed under ambient humidity” value ([1]; 35% RH, a few minutes) read?
Its value is “transforms into crystalline form I”.

What does the source list for `COc1ccc2c(c1)[C@]13CCCC[C@@H]1[C@H](C2)N(C)CC3` [Dextromethorphan, dextromethorphan, reference compound]?
Cough suppression rate vs Vehicle [9, 10]: 61.60%; Coughing times in 10 min [9, 10]: 8.00; effect on number of coughs compared with the vehicle group, in words ([9]; guinea pig, in vivo): significantly reduce the number of coughs
